Results reported in US20020059032A1, “Rational selection of putative peptides from identified nucleotide or peptide sequences” (priority 1999, published 2002).
Where a SMILES comes first, the peptide text is derived from it.

biological target: guinea pig brain membranes; assay: Binding test with guinea pig brain membranes; settings: tested on guinea pig brain membranes; read-out: IC50 = 100 μM
Procedure: Binding Assay Alternative Protocol by Skatron
The experimental conditions are identical for all the binding assay protocols except for the fact that: i) the volume R in operation is 200 μl; ii) the test carried out in 96-well Falcon plates iii) the reaction is directly stopped by filtration on filterMat (ref. 11734) Skatron and the radioactivity associated with the filtrate is evaluated: either directly with a γ counter for the peptides labelled with […]: or with a […] in the presence of 5 ml of scintillating liquid.
Membrane Preparations of Guinea Pig Brains and Binding Assay
The guinea pigs are sacrificed by rupturing their cervical vertibrae, decapitated, and the brains are removed very rapidly and placed into a sucrose-Tris-HCl buffer (0.32 M sucrose 5 mM, Tris-HCl, 0.1 g/l bacitracin) at 4° C. (about 10 ml of buffer per brain). The brains are then homogenized using a Potter device and the homogenate is placed in incubation for 30 minutes at 37° C. under agitation, then centrifuged twice for 35 minutes at 100,000×g at 4° C. The protein content of the membrane preparations is evaluated according to the Bradford method (BioRad, according to the manufacturers protocol).
Bonding of Labelled Agonists to the Guinea Pig Brain Membrane Preparation The membranes are placed in a buffer (50 mM of Tris-HCl, 5 mM of MgCl2 and 0.1 g/l of bacitracin) at the desired protein concentration (iodized CCK bond, 0.1 mg of protein/ml; iodized gastrin bond: 0.5 mg of proteins/ml). They are then incubated in the presence of a labelled ligand in a total volume of 500 μl (about 10 pM for the iodized CCK8, 20 pM for the iodized gastrin13), 50-80 minutes at 25° C., and in the presence or absence of cold agonists. The reaction is stopped with 3 ml of additional BSA buffer (20 g/l) at 4° C., the tubes are centrifuged at 10,000×g, the supernatant is drawn off and the radioactivity associated with the precipitate is evaluated with a γ counter.

Compound	IC50
CC[C@H](C)[C@H](NC(=O)[C@@H]1CCCN1C(=O)CNC(=O)CN)C(=O)N[C@@H](CO)C(=O)N[C@@H](Cc1ccccc1)C(=O)N[C@@H](CO)C(=O)N[C@@H](CO)C(=O)N[C@@H](CO)C(=O)N[C@@H](CCCNC(=N)N)C(=O)N[C@@H](CO)C(N)=O [Example 25, H-GGPISFSSSRS-NH2] (H-GGPISFSSSRS-NH2)	310 nM
CC[C@H](C)[C@H](NC(=O)[C@H](Cc1ccccc1)NC(=O)[C@H](CCC(=O)O)NC(=O)[C@@H]1CCCN1C(=O)[C@H](Cc1ccc(O)cc1)NC(=O)[C@H](Cc1c[nH]cn1)NC(=O)[C@H](CCC(=O)O)NC(=O)[C@@H](NC(=O)[C@@H](N)CC(C)C)C(C)C)C(N)=O [Example 45, H-LVEHYPEFI-NH2] (H-LVEHYPEFI-NH2)	700 nM
CC(C)C[C@H](NC(=O)[C@H](C)NC(=O)[C@H](CCCCN)NC(=O)CNC(=O)[C@@H]1CCCN1C(=O)[C@@H](NC(=O)[C@H](C)NC(=O)CN)[C@@H](C)O)C(=O)N[C@H](C(=O)N[C@@H](C)C(=O)N[C@H](C(=O)N1CCC[C@H]1C(N)=O)[C@@H](C)O)C(C)C [Example 39, H-GATPGKALVATP-NH2] (H-GATPGKALVATP-NH2)	400 nM
CC[C@H](C)[C@H](NC(=O)[C@H](C)NC(=O)[C@@H](NC(=O)[C@H](CCC(=O)O)NC(=O)[C@H](CCC(=O)O)NC(=O)[C@@H](NC(=O)CNC(=O)[C@H](Cc1ccccc1)NC(=O)[C@@H](NC(=O)[C@H](CC(=O)O)NC(=O)[C@@H](N)[C@@H](C)O)[C@@H](C)CC)C(C)C)[C@@H](C)O)C(N)=O [Example 56, H-TDIFGVEETAI-NH2] (H-TDIFGVEETAI-NH2)	730 nM
CC(C)[C@H](NC(=O)[C@H](C)NC(=O)[C@@H](NC(=O)[C@@H](NC(=O)[C@H](C)NC(=O)[C@@H](NC(=O)[C@@H](N)CCC(N)=O)[C@@H](C)O)C(C)C)[C@@H](C)O)C(=O)N[C@@H](CCC(=O)O)C(=O)N[C@@H](CCCCN)C(=O)N1CCC[C@H]1C(=O)N[C@@H](C)C(=O)N[C@@H](CC(=O)O)C(=O)N[C@@H](CCCCN)C(N)=O [Example 57, H-QTAVTAVEKPADK-NH2] (H-QTAVTAVEKPADK-NH2)	60 nM
CC[C@H](C)[C@H](NC(=O)CNC(=O)[C@H](CCC(=O)O)NC(=O)[C@H](CC(C)C)NC(=O)[C@@H](N)CO)C(=O)N[C@@H](Cc1ccccc1)C(=O)N[C@@H](CC(=O)O)C(=O)N[C@@H](CC(=O)O)C(=O)N[C@H](C(=O)N[C@H](C(=O)N1CCC[C@H]1C(=O)N[C@@H](CC(=O)O)C(N)=O)C(C)C)[C@@H](C)CC [Example 20, H-SLEGIFDDIVPD-NH2] (H-SLEGIFDDIVPD-NH2)	350 nM
CC(C)C[C@H](NC(=O)[C@H](CC(C)C)NC(=O)[C@@H](N)CO)C(=O)N[C@@H](CO)C(=O)N[C@@H](CCCCN)C(=O)N[C@H](C(=O)N[C@@H](CO)C(=O)N[C@@H](CCC(N)=O)C(N)=O)C(C)C [Example 7, H-SLLSKVSQ-NH2] (H-SLLSKVSQ-NH2)	430 nM
CC[C@H](C)[C@H](NC(=O)[C@H](CCC(=O)O)NC(=O)[C@H](C)NC(=O)[C@@H](N)C(C)C)C(=O)N[C@@H](CCC(N)=O)C(=O)NCC(=O)N[C@@H](Cc1c[nH]cn1)C(=O)N[C@@H](C)C(=O)NCC(N)=O [Example 32, H-VAEIQGHAG-NH2] (H-VAEIQGHAG-NH2)	200 nM
CSCC[C@H](NC(=O)CNC(=O)[C@H](Cc1ccccc1)NC(=O)[C@H](CC(N)=O)NC(=O)[C@H](CCCNC(=N)N)NC(=O)[C@H](CC(C)C)NC(=O)[C@@H](NC(=O)[C@H](CCSC)NC(=O)[C@H](CC(C)C)NC(=O)[C@H](CO)NC(=O)[C@@H](N)Cc1ccccc1)[C@@H](C)O)C(N)=O [Example 28, H-FSLMTLRNFGM-NH2] (H-FSLMTLRNFGM-NH2)	400 nM
CC(C)C[C@H](NC(=O)[C@H](C)N)C(=O)N[C@@H](CCC(=O)O)C(=O)N[C@@H](Cc1c[nH]c2ccccc12)C(=O)N[C@@H](CC(C)C)C(=O)NCC(=O)N[C@@H](C)C(=O)N[C@@H](CC(=O)O)C(=O)N[C@@H](CCCNC(=N)N)C(=O)N[C@@H](CC(N)=O)C(=O)N[C@@H](CCC(=O)O)C(N)=O [Example 37, H-ALEWLGADRNE-NH2] (H-ALEWLGADRNE-NH2)	800 nM
CC(C)C[C@H](NC(=O)[C@H](C)NC(=O)CNC(=O)[C@@H](NC(=O)[C@@H](N)CCCNC(=N)N)[C@@H](C)O)C(=O)N[C@H](C(=O)N[C@@H](CC(C)C)C(=O)N[C@@H](CO)C(=O)N[C@@H](CCCNC(=N)N)C(=O)NCC(N)=O)C(C)C [Example 23, H-RTGALVLSRG-NH2] (H-RTGALVLSRG-NH2)	1300 nM
CC(C)C[C@H](NC(=O)[C@H](CCC(N)=O)NC(=O)[C@H](C)NC(=O)[C@@H](NC(=O)[C@H](CCC(=O)O)NC(=O)[C@H](CCC(=O)O)NC(=O)[C@H](CCCCN)NC(=O)[C@@H]1CCCN1C(=O)[C@@H]1CCCN1C(=O)[C@@H](N)CCC(=O)O)[C@@H](C)O)C(=O)N[C@H](C(=O)NCC(=O)N1CCC[C@H]1C(=O)N[C@@H](CCC(=O)O)C(=O)N[C@@H](C)C(N)=O)[C@@H](C)O [Example 65, H-EPPKEETAQLTGPEA-NH2] (H-EPPKEETAQLTGPEA-NH2)	4000 nM
CSCC[C@H](NC(=O)[C@@H](N)CC(=O)O)C(=O)N[C@H](C(=O)N[C@H](C(=O)N[C@@H](Cc1ccccc1)C(=O)N[C@@H](CC(C)C)C(=O)N[C@@H](CC(=O)O)C(=O)NCC(=O)NCC(=O)N[C@@H](CCC(N)=O)C(=O)N[C@@H](CC(C)C)C(=O)NCC(=O)N[C@H](C(=O)N[C@@H](CC(C)C)C(=O)N[C@H](C(N)=O)C(C)C)[C@@H](C)O)C(C)C)C(C)C [Example 18, H-DMVVFLDGGQLGTLV-NH2] (H-DMVVFLDGGQLGTLV-NH2)	800 nM
CC[C@H](C)[C@H](NC(=O)[C@H](CO)NC(=O)[C@H](Cc1ccccc1)NC(=O)[C@@H]1CCCN1C(=O)[C@@H](NC(=O)[C@H](Cc1ccccc1)NC(=O)[C@H](C)NC(=O)[C@H](CC(=O)O)NC(=O)[C@@H](N)CO)C(C)C)C(N)=O [Example 22, H-SDAFVPFSI-NH2] (H-SDAFVPFSI-NH2)	2800 nM
CC[C@H](C)[C@H](NC(=O)CNC(=O)[C@H](CCCCN)NC(=O)[C@H](CO)NC(=O)[C@H](Cc1ccc(O)cc1)NC(=O)[C@@H](N)CC(=O)O)C(=O)N[C@H](C(=O)N[C@H](C(=O)N[C@H](C(=O)N[C@@H](CCCCN)C(=O)N[C@@H](CC(N)=O)C(=O)N[C@@H](CC(=O)O)C(N)=O)[C@@H](C)O)C(C)C)[C@@H](C)O [Example 62, H-DYSKGITVTKND-NH2] (H-DYSKGITVTKND-NH2)	670 nM
CC[C@H](C)[C@H](NC(=O)[C@H](C)NC(=O)[C@H](C)NC(=O)[C@@H](NC(=O)[C@H](CO)NC(=O)[C@H](C)NC(=O)[C@H](Cc1ccccc1)NC(=O)[C@H](Cc1ccc(O)cc1)NC(=O)[C@H](CCC(N)=O)NC(=O)[C@@H](NC(=O)[C@@H](N)C(C)C)[C@@H](C)CC)[C@@H](C)CC)C(=O)NCC(=O)N[C@@H](CC(=O)O)C(=O)N[C@@H](CCCNC(=N)N)C(N)=O [Example 52, H-VIQYFASIAAIGDR-NH2] (H-VIQYFASIAAIGDR-NH2)	7000 nM
CC[C@H](C)[C@H](NC(=O)[C@H](Cc1c[nH]cn1)NC(=O)[C@@H](N)CC(C)C)C(=O)N[C@@H](CO)C(=O)N[C@@H](Cc1c[nH]cn1)C(=O)N[C@@H](CC(=O)O)C(=O)N[C@@H](CCSC)C(=O)N[C@H](C(=O)NCC(=O)N1CCC[C@H]1C(=O)N[C@@H](CC(=O)O)C(N)=O)[C@@H](C)O [Example 19, H-LHISHDMTGPD-NH2] (H-LHISHDMTGPD-NH2)	700 nM
CC[C@H](C)[C@H](NC(=O)[C@H](CCCNC(=N)N)NC(=O)[C@H](CC(C)C)NC(=O)[C@H](CC(C)C)NC(=O)CNC(=O)[C@@H](NC(=O)[C@@H](N)Cc1c[nH]cn1)C(C)C)C(=O)N[C@@H](CCCCN)C(N)=O [Example 69, H-HVGLLRIK-NH2] (H-HVGLLRIK-NH2)	37 nM
CC[C@H](C)[C@H](NC(=O)[C@H](C)NC(=O)[C@@H](NC(=O)[C@H](CCC(=O)O)NC(=O)[C@H](CCC(=O)O)NC(=O)[C@@H]1CCCN1C(=O)[C@H](Cc1ccccc1)NC(=O)[C@@H](N)CC(=O)O)C(C)C)C(=O)N[C@H](C(=O)N[C@@H](CCC(=O)O)C(=O)N[C@@H](CCC(=O)O)C(=O)N[C@@H](CC(C)C)C(N)=O)C(C)C [Example 9, H-DFPEEVAIVEEL-NH2] (H-DFPEEVAIVEEL-NH2)	220 nM
CC[C@H](C)[C@H](NC(=O)[C@H](CCCCN)NC(=O)[C@H](Cc1ccccc1)NC(=O)[C@H](CCC(N)=O)NC(=O)[C@H](C)NC(=O)[C@H](Cc1c[nH]c2ccccc12)NC(=O)[C@@H](N)CCC(N)=O)C(=O)N[C@@H](CCC(N)=O)C(=O)N[C@@H](Cc1c[nH]c2ccccc12)C(=O)N[C@@H](CC(N)=O)C(=O)N[C@@H](CCC(N)=O)C(=O)N[C@@H](CCCNC(=N)N)C(=O)N[C@@H](Cc1c[nH]c2ccccc12)C(N)=O [Example 61, H-QWAQFKIQWNQRW-NH2] (H-QWAQFKIQWNQRW-NH2)	1110 nM
CC(C)C[C@H](NC(=O)[C@H](C)NC(=O)[C@H](CCC(=O)O)NC(=O)[C@H](CCC(N)=O)NC(=O)[C@@H](N)CC(C)C)C(=O)N[C@@H](CO)C(=O)N[C@@H](CCCCN)C(=O)N[C@@H](C)C(=O)N[C@@H](C)C(N)=O [Example 50, H-LQEALSKAA-NH2] (H-LQEALSKAA-NH2)	1000 nM
